Values quoted from earlier work as cited in article PMC8541353, “A Novel Phenylpyrrolidine Derivative: Synthesis and Effect on Cognitive Functions in Rats with Experimental Ishemic Stroke” (Molecules, 2021).

Conditions: cited from earlier work

Compound | Literature Report of BBB Permeability
NC(=O)CN1CC(O)CC1=O (centres unmarked) [Oxiracetam] | Low [20]
CC[C@@H](C(N)=O)N1C[C@H](C=C(F)F)CC1=O [Seletracetam] | Very good [19]
